In US20100068150A1, “Selective Caspase Inhibitors” (The Board of Trustees of the Leland Stanford Junior …, priority 2006, published 2010):

Legend:
Format in all cases: biochemical
[1] = biological target: Caspase-8 (Homo sapiens, UniProt Q14790); test: Kinetic compound screening, progress curve method, caspase-8; details: for Ki(app) Caspase-8: Table III, Ki(app) = Kass or Kobs/I, 10 nM active caspase-8; for Caspase-8 Ki (app): Table IV, NI = no inhibition at concentrations tested
In short: (§1)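 Progress-curve method under pseudo-first-order kinetics, giving Ki(app) (kobs/I, M^−1s^−1), in caspase reaction buffer. Active enzyme at 5 nM (caspase-3, -7), 10 nM (caspase-8) or 50 nM (caspase-9), preactivated at 37 °C for 5, 10 or 40 min respectively. Some caspase-9 compounds also run with 1 M sodium citrate replacing sucrose.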

[2] = biological target: T1, Caspase-3 (Homo sapiens, UniProt P42574); test: Kinetic compound screening, progress curve method, caspase-3; details: for Ki(app) Caspase-3: Table III, Ki(app) = Kass or Kobs/I, 5 nM active caspase-3; for Caspase-3 Ki(app): Table IV
T1 sequence (P42574 29-175 limits assumed): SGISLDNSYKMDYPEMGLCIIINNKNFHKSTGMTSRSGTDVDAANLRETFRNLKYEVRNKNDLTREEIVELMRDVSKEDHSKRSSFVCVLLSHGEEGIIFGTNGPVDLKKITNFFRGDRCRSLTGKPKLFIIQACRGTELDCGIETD
T1 sequence (P42574 176-277 limits assumed): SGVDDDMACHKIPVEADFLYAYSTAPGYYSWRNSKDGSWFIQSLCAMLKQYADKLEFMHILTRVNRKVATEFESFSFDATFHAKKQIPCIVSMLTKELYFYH
In short: as §1

[3] = biological target: T2, Caspase-7 (Homo sapiens, UniProt P55210); test: Kinetic compound screening, progress curve method, caspase-7; details: for Ki(app) Caspase-7: Table III, Ki(app) = Kass or Kobs/I, 5 nM active caspase-7; for Caspase-7 Ki (app): Table IV
T2 sequence (P55210 1-303): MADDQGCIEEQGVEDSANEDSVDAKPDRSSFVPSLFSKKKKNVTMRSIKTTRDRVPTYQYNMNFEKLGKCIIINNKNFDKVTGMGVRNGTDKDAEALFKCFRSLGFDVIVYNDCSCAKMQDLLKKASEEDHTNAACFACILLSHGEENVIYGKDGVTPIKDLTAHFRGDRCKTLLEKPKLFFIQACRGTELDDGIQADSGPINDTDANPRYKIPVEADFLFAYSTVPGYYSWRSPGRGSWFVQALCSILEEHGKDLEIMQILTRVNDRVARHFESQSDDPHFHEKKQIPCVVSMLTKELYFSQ
In short: as §1

Chain of Caspase-8 (Q14790 217-479): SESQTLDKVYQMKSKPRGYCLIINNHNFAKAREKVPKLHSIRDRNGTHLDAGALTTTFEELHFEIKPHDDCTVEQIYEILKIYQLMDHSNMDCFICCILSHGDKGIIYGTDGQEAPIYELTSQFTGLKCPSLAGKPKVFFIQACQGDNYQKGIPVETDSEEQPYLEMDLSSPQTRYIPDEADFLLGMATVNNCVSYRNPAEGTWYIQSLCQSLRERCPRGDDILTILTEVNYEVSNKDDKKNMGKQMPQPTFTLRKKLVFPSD

| inhibition of caspase-8, in words [1] | Ki(app) Caspase-8 [1] | Caspase-8 Ki (app) [1] | Ki(app) Caspase-3 [2] | Caspase-3 Ki(app) [2] | Ki(app) Caspase-7 [3] | Caspase-7 Ki (app) [3] | Compound |
| --- | --- | --- | --- | --- | --- | --- | --- |
| strong activity towards caspase-8 | 1,077,839 M^−1s^−1 | 1,077,839 M-1s-1 | 10,922,261 M^−1s^−1 | 10,922,261 M-1s-1 | 1,529,040 M^−1s^−1 | 1,529,040 M-1s-1 | Cc1cccc(C)c1C(=O)OCC(=O)[C@H](CC(=O)O)NC(=O)[C@@H](NC(=O)[C@H](CCC(=O)O)NC(=O)[C@H](CC(=O)O)NC(=O)Cc1ccc(O)c([N+](=O)[O-])c1)C(C)C [AB09, Np-D-E- V-D-DMBA] |
| – | 164,052 M^−1s^−1 | 164,052 M-1s-1 | 577,913 M^−1s^−1 | 577,913 M-1s-1 | 288,213 M^−1s^−1 | 288,213 M-1s-1 | Bio-EVD-AOMK [KMB01, reference compound] |

| Compound | inhibition of caspase-8, in words [1] | Ki(app) Caspase-8 [1] | Caspase-8 Ki (app) [1] | Ki(app) Caspase-3 [2] | Caspase-3 Ki(app) [2] | Ki(app) Caspase-7 [3] | Caspase-7 Ki (app) [3] |
| --- | --- | --- | --- | --- | --- | --- | --- |
| Cc1cccc(C)c1C(=O)OCC(=O)[C@H](CC(=O)O)NC(=O)[C@@H](NC(=O)[C@H](Cc1ccncc1)NC(=O)[C@H](CC(=O)O)NC(=O)Cc1ccc(O)c([N+](=O)[O-])c1)C(C)C [AB06, Np-D-3-V-D-DMBA] | – | 32,909 M^−1s^−1 | 32,909 M-1s-1 | 7,456,511 M^−1s^−1 | 7,456,511 M-1s-1 | 968,070 M^−1s^−1 | 968,070 M-1s-1 |
